# Assay: Anti-HIV Activity: Previously, a series of two-fold dilution on test samples were carried out in a 96-well plate (50 μL/well). Two plates were made for measuring anti-HIV activity and measuring cytotoxicity. For each agent, measurement in duplicate was carried out. An MT-4 cell suspension of 2.5×10^5/mL was dispensed at 100 μL/well onto the 96-well plate containing the test samples. An HIV virus solution was dispensed at 50 μL/well onto the 96-well plate containing the test samples and the cell. To the plate for measuring cytotoxicity, a culture solution was dispensed at 50 μL/well. It was mixed by a plate mixer, and then incubated in a CO2 incubator for 4 days. […] Thirty microliters of a MTT (3-(4,5-dimethylthiazol-2-yl)-2,5-diphenyltetrazolium bromide) solution was dispensed to each well.A reaction was allowed to occur in a CO2 incubator for an hour. From each well, 150 μL of the supernatant was removed such that cells are not sucked. One-hundred and fifty microliters of a cell lysis solution was added thereto, and then it was mixed well by a plate mixer until the whole cells are lysed. The mixed 96-well plates were measured by a microplate reader at two wavelengths, 560 nm/690 nm. Based on the following calculation formula, 50% HIV inhibition concentration (EC50) was calculated.
# Settings: MT4
row,SMILES,EC50 [nM]
1,COCCN1CN(CC(C)C)n2cc(C(=O)NNC(=S)Cc3ccc(F)cc3F)c(=O)c(O)c2C1=O,3.4
2,C[C@H]1CCN(C2CC2)[C@@H]2Cn3cc(-c4nnc(Cc5ccc(F)cc5F)s4)c(=O)c(OCc4ccccc4)c3C(=O)N12,3
3,C[C@@H]1C[C@@H](C)N2C(=O)c3c(O)c(=O)c(-c4nnc(Cc5ccc(F)cc5F)s4)cn3C[C@@H]2O1,2.7
4,C[C@H]1CCO[C@@H]2Cn3cc(-c4nnc(Cc5ccc(F)c(Cl)c5F)s4)c(=O)c(O)c3C(=O)N12,2.3
5,C[C@@H]1CCC2C(=O)c3c(O)c(=O)c(-c4ncc(Cc5ccc(F)cc5F)s4)cn3C[C@@H]2O1 (stereo partly specified),7.4
6,C[C@H]1CCO[C@@H]2Cn3cc(-c4nnc(Cc5ccc(F)cc5F)s4)c(=O)c(O)c3C(=O)N12,2.1
7,CCN1CN(CCOC)C(=O)c2c(O)c(=O)c(-c3ncc(Cc4cccc(Cl)c4F)s3)cn21,8.7
8,O=C1c2c(O)c(=O)c(-c3ncc(Cc4ccc(F)cc4F)s3)cn2C[C@@H]2CCCCN12,11
9,C[C@@H]1C[C@@H](C)N2C(=O)c3c(O)c(=O)c(-c4nnc(Cc5cccc(Cl)c5F)s4)cn3C[C@@H]2O1,2.8
10,C[C@H]1CCO[C@@H]2Cn3cc(-c4nnc(Cc5c(F)cc(F)cc5F)s4)c(=O)c(O)c3C(=O)N12,1.4
11,O=C1c2c(O)c(=O)c(-c3nnc(Cc4ccc(F)cc4F)s3)cn2C[C@H]2O[C@@H]3CCC[C@@H]3N12,1.6

# — ChEMBL document CHEMBL5726485, “Polycyclic pyridone derivative having integrase inhibitory activity” (2019)
